In patent US9062095B2, “Mutant double cyclized receptor peptides inhibiting β1-adrenoceptor antibodies” (JULIUS-MAXIMILIANS-UNIVERSTITAT-WURZBURG, priority 2007, dated 2015):
Positions of bridges follow the written chain, without caps; N, C: chain ends. No end group written: not given here.

Key:
anti-β1-ECII antibodies = test: ELISA-competition assay: peptide preincubated with sera/IgG of immunized antibody-positive rats, linear 25AA Cys/Cys-peptide as antigen; format: binding, rat; design: blocking capacity (% of blocked versus non-blocked ELISA-reactivity): concentration or dose not given beside the values; details: for decrease in circulating free anti-beta1-ECII antibodies: n=6 sera (FIG. 11); for blocking capacity (% of blocked versus non-blocked ELISA-reactivity): IgG from n=78 immunized antibody-positive rats, preincubation 12 h, mutants with D-Glu ring closure (FIG. 7); for blocking capacity (% of blocked versus non-blocked ELISA-reactivity) / blocking-efficiency versus unblocked sera: 4° C.; for blocking capacity (% of blocked versus non-blocked ELISA-reactivity) / blocking efficiency (% of blocked versus non-blocked ELISA reactivity) / blocking capacity (% of blocked versus non-blocked ELISA reactivity): ±SEM; for blocking-efficiency versus unblocked sera: n=6 sera, incubation 12-14 h, mean ±SEM (FIG. 27); for blocking efficiency (% of blocked versus non-blocked ELISA reactivity): type1 sera (93%, n=64 of 69), FIG. 9 upper panel; for blocking capacity (% of blocked versus non-blocked ELISA reactivity): type 2 sera (7%, n=5 of 69), FIG. 9 lower panel
Experimental: FIG. 9 is a diagram composed of two major-(upper and lower) panels resuming the blocking effect of both 25AA- and 18AA-cyclopeptide mutants having a Gln closure site, as well as 18AA cyclopeptide mutants having a D-Glu closure site after preincubation (12 h, 4° C., rotating incubation) with sera isolated from 69 different immunized antibody-positive rats in an ELISA-competition assay using the 3 Cys-containing linear 25AA Cys/Cys-peptide as an antigen. The upper panel depicts rat sera preferentially reacting with the Cys/Ser mutated cyclopeptides (type1 reaction, n=64), separated in cyc25AA(Gln)-peptides (left) and cyc18AA(Gln and D-Glu)-peptides (right). The lower panel depicts the rat sera reacting with both the Cys/Ser and the Ser/Cys mutated cyclopeptides (type2 reaction, n=5), again separated in the results obtained with cyc25AA(Gln)-peptides (left) and cyc18AA(Gln and D-Glu)-peptides (right).
FIG. 11 is a diagram resuming the dose-dependent (x-axis, abscissa: fold molar excess of specific peptides) blocking capacity of various linear and cyclic beta1-ECII-peptides given in % of the unblocked antibody-titer (y-axis, ordinate), including 25AA Cys/Cys linear peptides (black squares), 25AA Cys/Ser cyclopeptide mutants (white squares), 18AA Cys/Cys cyclo-peptides (black diamonds), 18AA Cys/Ser cyclopeptide mutants (white diamonds), and 18AA Cys/Ser linear peptide mutants (vertically hatched diamonds) in an ELISA competition assay performed with sera from n=6 randomly chosen immunized antibody-positive rats.
FIGS. 27A and B depict the in vitro blocking (=neutralization) capacity of various cysteine-containing cyclopeptide variants of the second extracellular loop (ECII) of the human beta1-adrenergic receptor, determined by testing n=6 individual sera (27A) of immunized beta1-ECII-antibody-positive rats after over-night incubation with the indicated cyclopeptides (12-14 h, 4° C.) by ELISA. Columns in 27A represent the receptor-antibody blocking efficiency of the indicated cyclopeptides in % of the antibody-(ELISA-)signals obtained with unblocked antibody-positive rat sera. Columns in 27B represent the mean blocking efficiency for each cyclopeptide, error bars indicate ±SEM.
The blocking capacity of β1-ECII-18AA cyclopeptide mutants (Cys13-Ser14 or Ser13-Cys14 mutation having an additional D-Glu-Gln exchange, e.g. at the ring closure site) was compared with the 3 Cys-containing 25AA or 18AA Cys/Cys cyclopeptides after preincubation (12 h, 4° C., rotating incubation over-night) of different numbers of sera from immunized antibody-positive rats in an ELISA-competition assay using the 3 Cys-containing linear 25AA Cys/Cys-peptide as an antigen. FIGS. 4, 5, and 7-10 show the results from measurements performed with sera of n=12 up to n=82 immunized antibody-positive rats using different cyclopeptides of the present invention.

[1] = system: beta1-receptor antibodies; test: in vivo prevention study: five prophylactic peptide applications, serum antibody-titers by ELISA; design: species or system rat; details: 1.0 mg/kg body weight i.v., 4-weekly, prevention protocol (FIG. 12)
Experimental: FIG. 12 is a diagram resuming the in vivo blocking capacity of in total five (prophylatic) applications of various linear and cyclic beta1-ECII-peptides, started 3 months after the first immunization (and two subsequent beta1-ECII/GST-antigen-boosts, corresponding to a prevention protocol). Serum-titers of the beta1-receptor antibodies were determined before and 18-20 h after each peptide injection (abscissa, time in months) and are given in % of the corresponding antibody-titers of immunized untreated rats (y-axis, ordinate). The injected peptides were: 25AA Cys/Cys linear peptide (black squares), […] (white squares), 18AA Cys/Cys cyclopeptide (black diamond), 18AA Cys/Ser cyclopeptide mutant (white diamonds), and the 18AA Cys/Ser linear peptide mutant (vertically hatched diamonds). […] Black circles indicate antibody-titers of untreated regularly (every 4 weeks) immunized animals serving as reference, set at 100%.
The in-vivo blocking effects of both 25AA and 18AA Cys/Ser mutant cyclopeptides (with a Gln closure site), the 18AA Ser/Cys mutant cyclopeptide, and a mutated linear 18AA Cys/Ser peptide were analyzed after intravenous (i.v.) injection of 1.0 mg/kg body weight (Bw) of each construct into freshly immunized antibody-positive rats (i.e., use of cyclo-peptides in a kind of “prevention” study), with a first cyclopeptide-application 3 months after the initial immunization (and two subsequent boost at months 2 and 3). In total, five prophylactic applications of the various constructs were given at 4-weekly intervals, always two weeks after the monthly continued antigen boost. Sera were drawn 18-20 hours after i.v. injection and assayed for reactivity by ELISA using the 3 Cys-containing linear 25AA Cys/Cys-peptide as an antigen (FIG. 12).

[2] = system: anti-beta1-receptor antibody-titers; test: in vivo therapy study in long term immunized cardiomyopathic rats: antibody-titers by ELISA; design: species or system rat
Experimental: FIG. 16A is a diagram resuming the in vivo blocking effect of both 25AA and 18AA cyclopeptide mutants with a Gln closure site, determined after a total of nine intravenous (i.v.) in-jections of 1.0 mg/kg body weight (Bw) of the indicated peptides into immunized antibody-positive rats. Sera were drawn before and 18-20 hours after i.v. injection of the various peptides every 4 weeks (abscissa: time in months of treatment) and assayed for reactivity by ELISA using the 3 Cys-containing linear 25AA Cys/Cys-peptide as an antigen.
FIG. 16B is a diagram resuming the in vivo blocking effect of various concentrations of 18AA cyclopeptide mutants with a Gln closure site, determined after a total of nine intra-venous (i.v.) injections of 0.25, 1.0, 2.0, and 4.0 mg/kg body weight (Bw) into immunized antibody-positive rats, irrespective of the cyclopeptide “responder-state” of individual animals. Sera were drawn before and 18-20 hours after i.v. injection of the various peptides every 4 weeks (abscissa: time in months), and assayed for reactivity by ELISA using the 3 Cys-containing linear 25AA Cys/Cys-peptide as an antigen.
Sera were drawn as described above and assayed for reactivity by ELISA using the 3 Cys-containing linear 25AA Cys/Cys-peptide as an antigen.
Moreover, the in vivo blocking effects of therapeutically used 25AA and 18AA Cys/Ser cyclo-peptide mutants, the 18AA Ser/Cys mutant (Gln-)cyclopeptide, and a mutated linear 18AA Cys/Ser peptide were assessed after a first intravenous (i.v.) dose (i.e., 1.0 mg/kg body weight (Bw)) of each construct injected into long term immunized anti-beta1-ECII antibody-positive rats, yet presenting a cardiomyopathic phenotype (after nine months of 1× monthly immunization with the beta1-ECII/GST antigen; FIGS. 14-16 and 17). Sera were drawn 18-20 hours after the first i.v. injection of the various constructions and assayed for reactivity by ELISA using the 3 Cys-containing linear 25AA Cys/Cys-peptide as an antigen.
The latter doses were almost equally efficient in terms of both, neutralization of circulating receptor antibodies (FIGS. 16b and c), and reversal of antibody-induced cardiomyopathic features (FIGS. 17b, 19b, 20, and 21b).
In order to generate anti-β1-receptor antibodies the animals were immunized with a fusion protein containing bacterial glutathione-S-transferase and the sequence of the second extra-cellular loop of the human β1-adrenergic receptor (GST/β1-ECII). Before treatment of the animals with mutated cyclopeptides according to the present invention, progressive dilated immune cardiomyopathy is observed after 6 to 8 months of regular immunization every four weeks (FIG. 17). All of the immunized animals developed high titers of stimulatory anti-β1-ECII antibodies. The specific anti-β1-ECII titer reached a maximum between 6 and 8 months of continuously boosting the animals every 4 weeks, whereas NaCl-injected control animals developed no specific receptor antibodies (FIG. 18).
Such immunized animals were used for the application of mutant cyclopeptides according to the present invention. The in-vivo blocking effect of both 25AA and 18AA Cys/Ser mutant cyclopeptides (with a Gln closure site) were determined after a first intravenous (i.v.) injection of 1.0 mg/kg body weight (Bw) (for 18AA Cys/Ser cyclopeptides also 0.25 mg/kg/Bw) into immunized antibody-positive rats. Sera were drawn 18-20 hours after i.v. injection of the different peptides and assayed for reactivity by ELISA using the 3 Cys-containing linear 25AA Cys/Cys-peptide as an antigen.

[3] = 20-fold molar excess of peptide
[4] = 80-fold molar excess of peptide

| Substance | decrease in circulating free anti-beta1-ECII antibodies (anti-β1-ECII antibodies; 8-fold molar excess of peptide) | decrease in circulating free anti-beta1-ECII antibodies (anti-β1-ECII antibodies; [3]) | decrease in circulating free anti-beta1-ECII antibodies (anti-β1-ECII antibodies; [4]) | blocking capacity (% of blocked versus non-blocked ELISA-reactivity) (anti-β1-ECII antibodies) | blocking-efficiency versus unblocked sera (anti-β1-ECII antibodies) | blocking efficiency (% of blocked versus non-blocked ELISA reactivity) (anti-β1-ECII antibodies) | blocking capacity (% of blocked versus non-blocked ELISA reactivity) (anti-β1-ECII antibodies) | antibody-titer decrease after 5 injections, compared with untreated immunized animals [1] | initial transient increase in antibody-titers ([2]; 1.0 mg/kg Bw (FIGS. 16a and b)) | absolute decrease in antibody-titers after 9 months of treatment, of the titer at start of therapy ([2]; 1.0 mg/kg i.v. every 4 weeks) | fraction of rat sera blocked by the peptide (anti-β1-ECII antibodies; n=69 sera, (Gln-)cyclopeptide mutants (FIG. 10), Cys/Ser = blocked by it alone (n=64), Ser/Cys = sera blocked by both (n=5)) | in vivo blocking capacity after the first i.v. injection ([2]; 1 mg/kg Bw, sera 18-20 hours after injection (FIGS. 14 and 15)) |
| --- | --- | --- | --- | --- | --- | --- | --- | --- | --- | --- | --- | --- |
| 18AA Cys/Cys cyclopeptides: (non-mutated) 3 Cys-containing β1-ECII-homologous 18AA cyclopeptide (cyclo(ADEARRCYNDPKCCDFVQ); not fully specified (bridges); cysteine pairing not given here) [reference compound] | 46% | 56% | 71% | 60±4% | 66.1±7.0% | 59±2% | 67±6% | 89.9±3% | – | – | – | – |
| ARAESDEARRCYNDPKCCDFVTNRQ (cysteine pairing not given here) [linear 25AA Cys/Cys peptides, reference compound] | 24% | 35% | about 50% | 55±4% | – | – | – | 25.8±3% | – | – | – | – |
| Cyclo-Ala-Arg-Ala-Glu-Ser-Asp-Glu-Ala-Arg-Arg-Cys-Tyr-Asn-Asp-Pro-Lys-Cys-Ser-Asp-Phe-Val-Thr-Asn-Arg-Gln (cyclo(ARAESDEARRCYNDPKCSDFVTNRQ); disulfide 11-17 (inferred)) [25AA Cys/Ser mutant cyclopeptides] | 30% | 49% | 83% | – | – | 69±2% | 48±6% | – | transient increase in antibody-titers | −37±13% | – | – |
| cyc22AA Cys/Cys: 3 cysteine-containing cyclic 22AA beta1-ECII peptide with a Gly closure site (cyclo(RAESDEARRCYNDPKCCDFVTG); disulfide (positions not given here)) [reference compound] | – | – | – | – | 82.0±5.0% | – | – | – | – | – | – | – |
| cyclo(Ala-Asp-Glu-Ala-Arg-Arg-Cys-Tyr-Asn-Asp-Pro-Lys-Ser-Cys-Asp-Phe-Val-Gln) (cyclo(ADEARRCYNDPKSCDFVQ); disulfide 7-14 (inferred)) [18AA Ser/Cys with Gln-] | – | – | – | – | – | 1±2% | 47±3% | – | – | – | about 7% | clearly less efficient |
